Test systems include HT-29; SF-268; NCI-H460; SR; ACHN; OVCAR-4; HCT-15; SK-MEL-2; UO-31; K562; RXF 393; UACC-257; HCT-116; CCRF-CEM; HOP-92; EKVX; COLO 205; NCI-H226; DU-145.
Common to all, as to assay: growth of human tumour cells (NCI), 48 h

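Cells were grown in 96-well plates and exposed to each compound for 48 hours at five concentrations; endpoints were interpolated linearly between bracketing concentrations, or set to the highest concentration if not reached. Abbreviation: GI50, concentration required for 50% inhibition of growth.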 The source made the active and inactive calls. No stated cut-off is given here; in the data, active = GI50 up to about 1.1 µM and inactive = higher.

In the case of `CCCCCCCCCCCCCCCc1nnc(SCC(=O)O)[nH]1`, the GI50 was 31.7 µM (inactive) in the assay with HT-29; 42 µM (inactive) with SF-268; > 100 µM (inactive) with NCI-H460; 60 µM (inactive) in the assay on SR; 47.3 µM (inactive) in the assay on ACHN; 45.7 µM (inactive) with OVCAR-4. Moreover, the GI50 in the assay on HCT-15 is 31.6 µM; in the assay on SK-MEL-2, 37.9 µM (inactive); in the assay with UO-31, 49.9 µM (inactive); in the assay with K562, 16.4 µM (inactive); in the assay on RXF 393, > 100 µM (inactive); with UACC-257, > 100 µM (inactive). For the same compound, the GI50 in the assay on HCT-116 is 92.7 µM (inactive); in the assay on CCRF-CEM, 24.2 µM (inactive); with HOP-92, 32.1 µM (inactive); with EKVX it was > 100 µM (inactive).

Turning to `CCCC1C[C@H]2CCCCN2[C@H]2CCCN12` (stereo partly specified), the GI50 was > 100 µM (inactive) in the assay with HT-29; > 100 µM (inactive) in the assay on SF-268; > 66.4 µM (inactive) in the assay on NCI-H460; > 40.6 µM (inactive) with SR; > 100 µM (inactive) in the assay on ACHN; > 100 µM (inactive) with OVCAR-4. Also, the GI50 is over 46.7 µM in the assay with HCT-15; > 100 µM (inactive) in the assay with SK-MEL-2; > 100 µM (inactive) in the assay with UO-31; > 50.2 µM (inactive) in the assay with K562; > 48.2 µM (inactive) with RXF 393; > 100 µM (inactive) in the assay with UACC-257. Moreover, the GI50 in the assay on HCT-116 was > 45.2 µM (inactive); in the assay with COLO 205 it was > 47.4 µM (inactive); with NCI-H226, > 100 µM (inactive); with CCRF-CEM it was > 45.9 µM (inactive); in the assay on HOP-92, > 100 µM (inactive); with EKVX, > 100 µM (inactive).

Regarding `CC(C)CC(NC(=O)c1cccc(O)c1O)C(=O)NCc1cc(CNC(=O)C(CC(C)C)NC(=O)c2cccc(O)c2O)cc(CNC(=O)C(CC(C)C)NC(=O)c2cccc(O)c2O)c1` (stereo unspecified), the GI50 with HT-29 is 13.3 µM (inactive); with SF-268, 8.13 µM (inactive); in the assay on NCI-H460, 14 µM (inactive); in the assay with SR it was 8.36 µM (inactive); in the assay with ACHN, 22.2 µM (inactive); with OVCAR-4, 13.9 µM (inactive). The GI50 is 23.1 µM with HCT-15; 7.05 µM (inactive) in the assay with SK-MEL-2; 12.3 µM (inactive) in the assay with UO-31; 18.9 µM (inactive) in the assay on K562; 20.1 µM (inactive) in the assay with UACC-257; 15.9 µM (inactive) in the assay with HCT-116. The GI50 with COLO 205 is 16.6 µM (inactive); in the assay with NCI-H226 it was 14.7 µM (inactive); in the assay on CCRF-CEM, 4.91 µM (inactive); in the assay on HOP-92, 14.6 µM (inactive); in the assay with EKVX, 12.6 µM (inactive).

`CC1(C)C(=O)C(C)(C)C1=NN`: the GI50 in the assay with HT-29, in the assay with SF-268, in the assay on NCI-H460, in the assay on SR, with ACHN and with OVCAR-4 was > 100 µM (inactive) throughout. The GI50 with HCT-15 is over 100 µM; in the assay on UO-31, > 100 µM (inactive); in the assay on K562 it was > 100 µM (inactive); in the assay on RXF 393 it was > 100 µM (inactive); in the assay with UACC-257 it was > 100 µM (inactive); in the assay with HCT-116 it was > 100 µM (inactive). The GI50 in the assay on COLO 205, in the assay on NCI-H226 and with HOP-92 was > 100 µM (inactive) each time.

On to `CCSC(SCC)=C1C(=O)N(c2ccccc2)N=C1C`, for which the GI50 in the assay with HT-29 is 19.1 µM (inactive); in the assay with SF-268, 14.1 µM (inactive); in the assay with NCI-H460 it was 16 µM (inactive); with SR, 15.6 µM (inactive); in the assay on ACHN, 15.7 µM (inactive); in the assay with HCT-15 it was 12.3 µM. For the same compound, the GI50 in the assay with SK-MEL-2 is 15.8 µM (inactive); with UO-31 it was 15.6 µM (inactive); with K562, 5.71 µM (inactive); in the assay with RXF 393, 1.95 µM (inactive); in the assay on UACC-257 it was 4.06 µM (inactive); with HCT-116 it was 15.1 µM (inactive). Moreover, the GI50 in the assay with COLO 205 is 2.27 µM (inactive); with NCI-H226, 15.7 µM (inactive); in the assay with CCRF-CEM it was 2.92 µM (inactive); in the assay on HOP-92, 6.38 µM (inactive); in the assay on EKVX, 13.7 µM (inactive).

Take `O=C(c1cccs1)N(C(=S)N1CCN(c2ccccn2)CC1)C1CCCCC1`: the GI50 in the assay with HT-29 is 52 µM (inactive); in the assay on SF-268, > 100 µM (inactive); in the assay with NCI-H460, 54.6 µM (inactive); in the assay on SR, 36.6 µM (inactive); with ACHN it was 69.2 µM (inactive); in the assay with OVCAR-4, > 100 µM (inactive). For the same compound, the GI50 with HCT-15 is 78 µM; in the assay on SK-MEL-2, 58.6 µM (inactive); in the assay on UO-31, 44.4 µM (inactive); with K562, 47 µM (inactive); in the assay on RXF 393, 22.5 µM (inactive); with UACC-257 it was 50.9 µM (inactive). For the same compound, the GI50 in the assay with HCT-116 was 49.3 µM (inactive); in the assay on COLO 205 it was 22.4 µM (inactive); in the assay with NCI-H226 it was 19.5 µM (inactive); in the assay with CCRF-CEM, 81.1 µM (inactive); with HOP-92, 66.2 µM (inactive).

Take `N#C/C(=C(/S)Nc1ccccc1)c1nc2ccccc2[nH]1`: the GI50 with SF-268 is > 10 µM (inactive); in the assay on NCI-H460, > 10 µM (inactive); in the assay with SR it was > 10 µM (inactive); with ACHN it was > 10 µM (inactive); in the assay on OVCAR-4, > 10 µM (inactive); in the assay with HCT-15, over 10 µM. In addition, the GI50 in the assay on SK-MEL-2, in the assay with UO-31, in the assay on K562, in the assay on UACC-257, with HCT-116 and with COLO 205 was > 10 µM (inactive) in each case. In addition, the GI50 in the assay on NCI-H226, with CCRF-CEM, in the assay on HOP-92 and in the assay on EKVX was > 10 µM (inactive) throughout.

On to `Cc1cc(C=O)c2c(=O)c3c(O)ccc(/C=C/C(C)C)c3oc2c1`, for which the GI50 was > 100 µM (inactive) in the assay on HT-29; 41.9 µM (inactive) with SF-268; > 100 µM (inactive) with NCI-H460; 26.7 µM (inactive) with SR; 46.3 µM (inactive) in the assay on ACHN; 31.4 µM (inactive) with OVCAR-4. Besides, the GI50 in the assay on HCT-15 was 30.5 µM; in the assay with SK-MEL-2 it was > 100 µM (inactive); in the assay with UO-31, > 100 µM (inactive); in the assay with K562, 39.8 µM (inactive); with UACC-257 it was > 100 µM (inactive); with HCT-116 it was 20.9 µM (inactive). For the same compound, the GI50 was > 100 µM (inactive) in the assay with COLO 205, > 100 µM (inactive) in the assay on NCI-H226, > 10 µM (inactive) with CCRF-CEM and 68.9 µM (inactive) with HOP-92.

In the case of `CCN(c1ccccc1)[C@H]1C(=O)N(c2ccc([N+](=O)[O-])cc2)[C@H]1c1ccc(OC)cc1`, the GI50 with HT-29, in the assay on SF-268, in the assay on NCI-H460, in the assay with SR, in the assay on ACHN and in the assay on SK-MEL-2 was > 100 µM (inactive) in each case. Also, the GI50 with UO-31 was > 100 µM (inactive); in the assay with K562, 41.6 µM (inactive); with RXF 393, 37.6 µM (inactive); with UACC-257 it was > 100 µM (inactive); in the assay on HCT-116, > 100 µM (inactive); in the assay with COLO 205, 38 µM (inactive). In addition, the GI50 was > 100 µM (inactive) with NCI-H226, 39.1 µM (inactive) in the assay on CCRF-CEM, 15.8 µM (inactive) in the assay with HOP-92 and > 100 µM (inactive) in the assay on EKVX.

Regarding `CC(C)C(=O)/C=C/c1ccc(Cl)cc1`, the GI50 was 14.1 µM (inactive) with HT-29; 23.8 µM (inactive) in the assay with SF-268; 15.7 µM (inactive) in the assay on NCI-H460; 4.84 µM (inactive) in the assay with SR; 11.2 µM (inactive) in the assay with ACHN; 12.9 µM (inactive) with OVCAR-4. Besides, the GI50 with SK-MEL-2 was 19.4 µM (inactive); with UO-31 it was 12.2 µM (inactive); in the assay with K562 it was 3.48 µM (inactive); in the assay with RXF 393, 17.6 µM (inactive); in the assay on UACC-257, 20.2 µM (inactive); in the assay on HCT-116, 2.67 µM (inactive). Also, the GI50 is 28.2 µM (inactive) in the assay with COLO 205, 4.19 µM (inactive) in the assay with CCRF-CEM and 16.7 µM (inactive) in the assay on HOP-92.

With `COc1cc(C2c3cc4c(cc3[C@@H](N(C)c3ccc(N(C)C)cc3)C3COC(=O)C23)OCO4)cc(OC)c1O` (stereo partly specified), the GI50 is 0.269 µM (active) in the assay with HT-29; 0.343 µM (active) with SF-268; 0.352 µM (active) in the assay on NCI-H460; 0.427 µM (active) in the assay on SR; 0.774 µM (active) in the assay on ACHN; 9.57 µM (inactive) with OVCAR-4. Moreover, the GI50 is 0.449 µM with HCT-15; 0.33 µM (active) in the assay on SK-MEL-2; 0.964 µM (active) in the assay with UO-31; 0.329 µM (active) in the assay on K562; 1.39 µM (inactive) with UACC-257; 0.399 µM (active) in the assay with HCT-116. In addition, the GI50 in the assay on COLO 205 was 0.479 µM (active); in the assay with NCI-H226, 0.292 µM (active); in the assay on CCRF-CEM, 0.343 µM (active); with HOP-92, 1.99 µM (inactive); in the assay with EKVX, 15.8 µM (inactive).

Turning to `CCOc1ccc(NCc2cc(OC)c(OC)c(OC)c2)cc1`, the GI50 in the assay with HT-29 was 0.366 µM (active); in the assay on SF-268, 2.29 µM (inactive); in the assay with NCI-H460, 0.499 µM (active); in the assay with SR, 0.256 µM (active); in the assay on ACHN it was 10.7 µM (inactive); with OVCAR-4, 41.6 µM (inactive). For the same compound, the GI50 with HCT-15 is 0.335 µM; with UO-31, 4.8 µM (inactive); in the assay with K562, 0.215 µM (active); in the assay with UACC-257, 20.9 µM (inactive); with HCT-116 it was 0.427 µM (active); with COLO 205, 0.384 µM (active). Moreover, the GI50 is 10.3 µM (inactive) in the assay with NCI-H226, 2.57 µM (inactive) in the assay with DU-145, 5.43 µM (inactive) with HOP-92 and 34.9 µM (inactive) with EKVX.
